The values that follow come from patent US20170002055A1, “Novel peptides and combination of peptides for use in immunotherapy against ovarian cancer and other cancers” (immatics biotechnologies GmbH, priority 2015, published 2017).

In one assay the test system is CD8+ T cells. Description: In vitro immunogenicity: priming of CD8+ T cells with artificial APCs loaded with peptide/MHC and anti-CD28, multimer readout. In kind it is cell-based, human. The following applies: for Wells positive [%]: HLA-A*02 restricted peptides, percentage of positive wells. The source says:
In order to obtain information regarding the immunogenicity of the TUMAPs of the present invention, the inventors performed investigations using an in vitro T-cell priming assay based on repeated stimulations of CD8+ T cells with artificial antigen presenting cells (aAPCs) loaded with peptide/MHC complexes and anti-CD28 antibody.
In order to perform in vitro stimulations by artificial antigen presenting cells loaded with peptide-MHC complex (pMHC) and anti-CD28 antibody, the inventors first isolated CD8+ T cells from fresh HLA-A*02 leukapheresis products via positive selection using CD8 microbeads (Miltenyi Biotec, Bergisch-Gladbach, Germany) of healthy donors obtained from the University clinics Mannheim, Germany, after informed consent.
PBMCs and isolated CD8+ lymphocytes were incubated in T-cell medium (TCM) until use consisting of RPMI-Glutamax (Invitrogen, Karlsruhe, Germany) supplemented with 10% heat inactivated human AB serum (PAN-Biotech, Aidenbach, Germany), 100 U/ml Penicillin/100 μg/ml Streptomycin (Cambrex, Cologne, Germany), 1 mM sodium pyruvate (CC Pro, Oberdorla, Germany), 20 μg/ml Gentamycin (Cambrex). 2.5 ng/ml IL-7 (PromoCell, Heidelberg, Germany) and 10 U/ml IL-2 (Novartis Pharma, Nürnberg, Germany) were also added to the TCM at this step.
Generation of pMHC/anti-CD28 coated beads, T-cell stimulations and readout was performed in a highly defined in vitro system using four different pMHC molecules per stimulation condition and 8 different pMHC molecules per readout condition.
The purified co-stimulatory mouse IgG2a anti human CD28 Ab 9.3 (Jung et al., 1987) was chemically biotinylated using Sulfo-N-hydroxysuccinimidobiotin as recommended by the manufacturer (Perbio, Bonn, Germany). Beads used were 5.6 μm diameter streptavidin coated polystyrene particles (Bangs Laboratories, Illinois, USA).
pMHC used for positive and negative control stimulations were A*0201/MLA-001 (peptide […] (SEQ ID NO. 664) from modified Melan-A/MART-1) and A*0201/DDX5-001 ([…] from DDX5, SEQ ID NO. 665), respectively.
800.000 beads/200 μl were coated in 96-well plates in the presence of 4×12.5 ng different biotin-pMHC, washed and 600 ng biotin anti-CD28 were added subsequently in a volume of 200 μl. Stimulations were initiated in 96-well plates by co-incubating […] CD8+ T cells with 2×10^5 washed coated beads in 200 μl TCM supplemented with 5 ng/ml IL-12 (PromoCell) for 3 days at 37° C. Half of the medium was then exchanged by fresh TCM supplemented with 80 U/ml IL-2 and incubating was continued for 4 days at 37° C. This stimulation cycle was performed for a total of three times. For the pMHC multimer readout using 8 different pMHC molecules per condition, a two-dimensional combinatorial coding approach was used as previously described (Andersen et al., 2012) with minor modifications encompassing coupling to 5 different fluorochromes. Finally, multimeric analyses were performed by staining the cells with Live/dead near IR dye (Invitrogen, Karlsruhe, Germany), CD8-FITC antibody clone SK1 (BD, Heidelberg, Germany) and fluorescent pMHC multimers. For analysis, a BD LSRII SORP cytometer equipped with appropriate lasers and filters was used. Peptide specific cells were calculated as percentage of total CD8+ cells. Evaluation of multimeric analysis was done using the FlowJo software (Tree Star, Oregon, USA). In vitro priming of specific multimer+ CD8+ lymphocytes was detected by comparing to negative control stimulations.

The next assay concerns the target HLA-A*02:01 (Homo sapiens, UniProt P04439, D140Y/D185E/D98H/E176V/E277Q/G131W/G231S/I119V/I121R/I166T/I218V/L300P/L318F/N151K/N90K/P208A/P217A/Q86G/Q94H/R138H/R169H/T345S). Description: MHC binding assay (UV-ligand exchange, β2m ELISA, peptide exchange yield). The following applies: MHC class I binding score; binding to HLA-A*02:01 ranged by peptide exchange yield (UV-ligand exchange, β2m ELISA). An outline of the steps: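 Peptide–HLA-A*02:01 complexes were formed by UV-mediated exchange of a UV-cleavable ligand for the test peptide. Exchange yield was measured by capturing complexes on streptavidin, detecting with HRP anti-β2m antibody (1 h, 37°C) and reading TMB absorbance at 450 nm.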

Regarding “283 (ALYIGDGYVIHLA; listed as Homo sapiens) [compound 283]”, the donors entry in the assay with CD8+ T cells (HLA-A*02, percentage of positive donors) is on record as “+++ (50%-69 = +++)”. For the same substance, the wells result in the assay on CD8+ T cells (HLA-A*02, percentage of positive wells) is “+ (<20% = +)”. In addition, the Peptide exchange result in the assay with HLA-A*02:01 is ““+++” (≧50 = +++)”.
On to “319 (SLEPQIQPV; listed as Homo sapiens) [compound 319]”, for which the “Wells positive [%]” value in the assay with CD8+ T cells is recorded as ““+” (<20% = +)”. For the same substance, the Peptide exchange entry in the assay with HLA-A*02:01 is recorded as ““++” (≧20% = ++)”.
Taken in the same sequence, the figures for “384 (ILFANPNIFV; listed as Homo sapiens) [compound 384]” were ““+” (<20% = +)” and ““+++” (≧50 = +++)”.
The corresponding values for “395 (ALALGGIAVV; listed as Homo sapiens) [compound 395]” are ““+++” (50%-69% = +++)” and ““++++” (≧75% = ++++)”.
Regarding “443 (GLWEIENNPTV; listed as Homo sapiens) [compound 443]”, in the assay on CD8+ T cells, the “Wells positive [%]” value is on record as ““+” (<20% = +)”. Also, the Peptide exchange result with HLA-A*02:01 is given as ““+++” (≧50 = +++)”.
On to “446 (QLIPALAKV; listed as Homo sapiens) [compound 446]”, for which the “Wells positive [%]” value with CD8+ T cells is reported as ““++” (20%-49% = ++)”. In addition, the Peptide exchange result with HLA-A*02:01 is ““+++” (≧50 = +++)”.
The corresponding values for “454 (KLPPPPPQA; listed as Homo sapiens) [compound 454]” are ““++” (20%-49% = ++)” and ““+++” (≧50 = +++)”.
“460 (AMLEKNYKL; listed as Homo sapiens) [compound 460]”: in the assay on CD8+ T cells, the “Wells positive [%]” value is ““+” (<20% = +)”. Also, the Peptide exchange result with HLA-A*02:01 is given as ““++++” (≧75% = ++++)”.
Taken in the same sequence, the figures for “463 (SLVESHLSDQLTL; listed as Homo sapiens) [compound 463]” were ““++” (20%-49% = ++)” and ““+++” (≧50 = +++)”.
On to “489 (KMWEELPEVV; listed as Homo sapiens) [compound 489]”, for which the “Wells positive [%]” value with CD8+ T cells is on record as ““+” (<20% = +)”. Besides, the Peptide exchange result in the assay with HLA-A*02:01 is given as ““+++” (≧50 = +++)”.
Turning to “499 (KIFDIDEAEEGV; listed as Homo sapiens) [compound 499]”, in the assay on CD8+ T cells, the “Wells positive [%]” value is reported as ““+” (<20% = +)”. The Peptide exchange result with HLA-A*02:01 is given as ““++” (≧20% = ++)”.
“511 (FLDPYCSASV; listed as Homo sapiens) [compound 511]”: the “Wells positive [%]” value in the assay with CD8+ T cells was ““+” (<20% = +)”. Moreover, the Peptide exchange entry with HLA-A*02:01 was ““++” (≧20% = ++)”.
On to “518 (KLNAEVACV; listed as Homo sapiens) [compound 518]”, for which the “Wells positive [%]” value in the assay with CD8+ T cells was ““++” (20%-49% = ++)”. For the same substance, the Peptide exchange result in the assay with HLA-A*02:01 is reported as ““+++” (≧50 = +++)”.
Turning to “603 (FLIEPEHVNTV; listed as Homo sapiens) [compound 603]”, in the assay with CD8+ T cells, the “Wells positive [%]” value was ““+” (<20% = +)”. In the assay with HLA-A*02:01, the Peptide exchange entry is given as ““++” (≧20% = ++)”.
